Values quoted from earlier work, collected in patent EP0076676B1, “Process for using endorphins as antitumour agents” (TNI PHARMACEUTICALS, INC., priority 1981, dated 1986).

System: phenylalanyl-t RNA synthetase
Conditions: observed by Laidow et al, J.B.C. 255 (1980)

beta-endorphin
inhibition of phenylalanyl-t RNA synthetase: inhibit
